For 18 molecules, DC50 results are on record in patent US20260355196A1, “INHIBITORS AND DEGRADERS OF PIP4K PROTEIN” (Larkspur Biosciences, Inc., priority 2023, published 2026).

A value given as a limit tells only on which side of the number the result lay.

The target of the test is T1, PIP4K2C (Homo sapiens, UniProt Q8TBX8).
T1 sequence (Q8TBX8 1-421): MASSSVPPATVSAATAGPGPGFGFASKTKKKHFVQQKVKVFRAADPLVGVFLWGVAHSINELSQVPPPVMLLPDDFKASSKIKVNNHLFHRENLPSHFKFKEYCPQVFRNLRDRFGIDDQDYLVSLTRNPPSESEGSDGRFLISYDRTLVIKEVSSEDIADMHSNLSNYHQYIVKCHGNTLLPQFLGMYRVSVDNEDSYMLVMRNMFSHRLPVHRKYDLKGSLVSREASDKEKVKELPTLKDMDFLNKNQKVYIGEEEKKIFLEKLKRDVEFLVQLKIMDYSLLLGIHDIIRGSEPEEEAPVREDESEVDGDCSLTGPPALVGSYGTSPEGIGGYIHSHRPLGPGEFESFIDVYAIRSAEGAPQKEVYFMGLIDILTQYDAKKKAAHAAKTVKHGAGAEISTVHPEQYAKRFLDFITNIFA
The experiment in a line: HiBiT PIP4K2C degradation assay in MOLT-4 cells (endogenous PIP4K2C C-terminally tagged with HiBiT). The class given is cell-based. On the set-up: untagged in primary human PBMCs and monocyte-derived dendritic cells. The settings on record: 6 hours of incubation time, rather than 24 hours; MOLT-4, top concentration 10 micromolar; read-out: HiBIT-degradation MOLT4 PIP4k2C DC50 (6 hours, marked *). A digest of the protocol:
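Cells are plated onto compound dilutions (10 points, 3-fold, top 10 micromolar) and incubated 24 or 6 hours at 37 C. Lytic HiBiT detection then quantifies tagged endogenous PIP4K2C in MOLT-4, and a Hill fit yields DC50.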
(In general: HiBiT is a short tag that completes a luciferase, so light tracks the accessible tagged protein.)
As usually defined, the DC50 is the midpoint of the concentration-degradation curve. `O=C1CCC(Nc2ccc(C3CCN(C4CCN(C(=O)O[C@H]5CC[C@H](Nc6ncc(F)c(-c7cccc(N8CCCCC8=O)c7)n6)CC5)CC4)CC3)c(F)c2)C(=O)N1` (stereo partly drawn) [Compound 678, trans-4-((5-fluoro-4-(3-(2-oxopiperidin-1-yl)phenyl)pyrimidin-2-yl)amino)cyclohexyl 4-(4-((2,6-dioxopiperidin-3-yl)amino)-2-fluorophenyl)-[1,4′-bipiperidine]-1′-carboxylate]: the 50% degradation concentration (DC50) was less than 500 nM.

With `Cn1nc(C2CCC(=O)NC2=O)c2ccc(C3CCN(C[C@H]4CC[C@H](OC(=O)N5CCC(Nc6ncc(F)c(-c7cccc(-n8ccccc8=O)c7)n6)CC5)CC4)CC3)cc21` (stereo partly drawn) [Compound 679, trans-4-((4-(3-(2,6-dioxopiperidin-3-yl)-1-methyl-1H-indazol-6-yl)piperidin-1-yl)methyl)cyclohexyl 4-((5-fluoro-4-(3-(2-oxopyridin-1 (2H)-yl)phenyl)pyrimidin-2-yl)amino)piperidine-1-carboxylate], the DC50 is less than 500 nM.

On to `O=C1CCC(Nc2ccc(C3CCN(CC4(O)CCC(C(=O)N5CCC(Nc6ncc(F)c(-c7cccc(-n8ccccc8=O)c7)n6)CC5)CC4)CC3)c(F)c2)C(=O)N1` (stereo not drawn) [Compound 680, trans-3-((3-fluoro-4-(1-((4-(4-((5-fluoro-4-(3-(2-oxopyridin-1 (2H)-yl)phenyl)pyrimidin-2-yl)amino)piperidine-1-carbonyl)-1-hydroxycyclohexyl)methyl)piperidin-4-yl)phenyl)amino)piperidine-2,6-dione], for which the DC50 is less than 500 nM.

For `O=C1CCC(Nc2ccc(N3CCN(C4CC5(C4)CN(C(=O)O[C@H]4CC[C@H](Nc6ncc(F)c(-c7cccc(-n8ccccc8=O)c7)n6)CC4)C5)CC3)c(F)c2)C(=O)N1` (stereo partly drawn) [Compound 681, trans-4-((5-fluoro-4-(3-(2-oxopyridin-1 (2H)-yl)phenyl)pyrimidin-2-yl)amino)cyclohexyl 6-(4-(4-((2,6-dioxopiperidin-3-yl)amino)-2-fluorophenyl)piperazin-1-yl)-2-azaspiro[3.3]heptane-2-carboxylate], the DC50 was less than 500 nM.

Take `O=C1CCC(Nc2ccc(C3CCN(CC4CCC(C(=O)N5CCC(Nc6ncc(F)c(-c7cccc(N8CCCCC8)c7)n6)CC5)CC4)CC3)c(F)c2)C(=O)N1` (stereo not drawn) [Compound 682, trans-3-((3-fluoro-4-(1-((4-(4-((5-fluoro-4-(3-(piperidin-1-yl)phenyl)pyrimidin-2-yl)amino)piperidine-1-carbonyl)cyclohexyl)methyl)piperidin-4-yl)phenyl)amino)piperidine-2,6-dione]: the DC50 is less than 500 nM.

Turning to `O=C1CCC(Nc2ccc(C3CCN(C[C@H]4CC[C@H](C(=O)N5CCC(Nc6ncc(F)c(-c7cccc(N8CCOCC8=O)c7)n6)CC5)CC4)CC3)c(F)c2)C(=O)N1` (stereo partly drawn) [Compound 683, 3-((3-fluoro-4-(1-(((trans)-4-(4-((5-fluoro-4-(3-(3-oxomorpholino)phenyl)pyrimidin-2-yl)amino)piperidine-1-carbonyl)cyclohexyl)methyl)piperidin-4-yl)phenyl)amino)piperidine-2,6-dione], the DC50 is greater than 5000 nM.

Consider `O=C1CCC(Nc2ccc(C3CCN(C[C@H]4CC[C@H](C(=O)N5CCC(Nc6ncc(F)c(-c7cccc(N8CCCOC8=O)c7)n6)CC5)CC4)CC3)c(F)c2)C(=O)N1` (stereo partly drawn) [Compound 684, trans-3-((3-fluoro-4-(1-((4-(4-((5-fluoro-4-(3-(2-oxo-1,3-oxazinan-3-yl)phenyl)pyrimidin-2-yl)amino)piperidine-1-carbonyl)cyclohexyl)methyl)piperidin-4-yl)phenyl)amino)piperidine-2,6-dione], for which the DC50 is less than 500 nM.

As for `O=C1CCC(Nc2ccc(C3CCN(C[C@H]4CC[C@H](C(=O)N5CCC(Nc6ncc(F)c(-c7cccc(N8CCCCC8=O)c7)n6)CC5)CC4)CC3)c(F)c2)C(=O)N1` (stereo partly drawn) [Compound 685, 3-((3-fluoro-4-(1-((trans-4-(4-((5-fluoro-4-(3-(2-oxopiperidin-1-yl)phenyl)pyrimidin-2-yl)amino)piperidine-1-carbonyl)cyclohexyl)methyl)piperidin-4-yl)phenyl)amino)piperidine-2,6-dione], the DC50 is less than 500 nM.

Take `O=C1CCC(Nc2ccc(N3CCN(CC4CCN(C(=O)[C@H]5CC[C@H](Nc6ncc(F)c(-c7cccc(N8CCOCC8)c7)n6)CC5)CC4)CC3)c(F)c2)C(=O)N1` (stereo partly drawn) [Compound 686, trans-3-((3-fluoro-4-(4-((1-(4-((5-fluoro-4-(3-morpholinophenyl)pyrimidin-2-yl)amino)cyclohexane-1-carbonyl)piperidin-4-yl)methyl)piperazin-1-yl)phenyl)amino)piperidine-2,6-dione]: the DC50 is less than 500 nM.

For the molecule `O=C1CCC(Nc2ccc(N3CCN(C4CCN(C(=O)O[C@H]5CC[C@H](Nc6ncc(F)c(-c7cccc(N8CCCCC8)c7)n6)CC5)CC4)CC3)c(F)c2)C(=O)N1` (stereo partly drawn) [Compound 687, trans-4-((5-fluoro-4-(3-(piperidin-1-yl)phenyl)pyrimidin-2-yl)amino)cyclohexyl 4-(4-(4-((2,6-dioxopiperidin-3-yl)amino)-2-fluorophenyl)piperazin-1-yl)piperidine-1-carboxylate], the half-maximal degradation concentration (DC50) was less than 500 nM.

Consider `O=C1CCC(Nc2ccc(N3CCN(C4CCN(C(=O)O[C@H]5CC[C@H](Nc6ncc(F)c(-c7cccc(N8CCOCC8=O)c7)n6)CC5)CC4)CC3)c(F)c2)C(=O)N1` (stereo partly drawn) [Compound 688, trans-4-((5-fluoro-4-(3-(3-oxomorpholino)phenyl)pyrimidin-2-yl)amino)cyclohexyl 4-(4-(4-((2,6-dioxopiperidin-3-yl)amino)-2-fluorophenyl)piperazin-1-yl)piperidine-1-carboxylate], for which the DC50 was less than 500 nM.

Turning to `O=C1CCC(Nc2ccc(C3CCN(C4CCN(C(=O)O[C@H]5CC[C@H](Nc6ncc(F)c(-c7cccc(N8CCCCC8)c7)n6)CC5)CC4)CC3)c(F)c2)C(=O)N1` (stereo partly drawn) [Compound 689, trans-4-((5-fluoro-4-(3-(piperidin-1-yl)phenyl)pyrimidin-2-yl)amino)cyclohexyl 4-(4-((2,6-dioxopiperidin-3-yl)amino)-2-fluorophenyl)-[1,4′-bipiperidine]-1′-carboxylate], the 50% degradation concentration (DC50) is less than 500 nM.

Turning to `O=C1CCC(Nc2ccc(C3CCN(C4CCN(C(=O)O[C@H]5CC[C@H](Nc6ncc(F)c(-c7cccc(N8CCOCC8=O)c7)n6)CC5)CC4)CC3)c(F)c2)C(=O)N1` (stereo partly drawn) [Compound 690, trans-4-((5-fluoro-4-(3-(3-oxomorpholino)phenyl)pyrimidin-2-yl)amino)cyclohexyl 4-(4-((2,6-dioxopiperidin-3-yl)amino)-2-fluorophenyl)-[1,4′-bipiperidine]-1′-carboxylate], the DC50 was less than 500 nM.

On to `O=C1CCC(Nc2ccc(N3CCC(CC4(O)CCN(C(=O)[C@H]5CC[C@H](Nc6ncc(F)c(-c7cccc(-n8ccccc8=O)c7)n6)CC5)CC4)CC3)c(F)c2)C(=O)N1` (stereo partly drawn) [Compound 691, trans-3-((3-fluoro-4-(4-((1-(4-((5-fluoro-4-(3-(2-oxopyridin-1 (2H)-yl)phenyl)pyrimidin-2-yl)amino)cyclohexane-1-carbonyl)-4-hydroxypiperidin-4-yl)methyl)piperidin-1-yl)phenyl)amino)piperidine-2,6-dione], for which the DC50 was less than 500 nM.

`O=C1CCC(Nc2ccc(C3CCN([C@H]4CC[C@H](NC(=O)[C@H]5CC[C@H](Nc6ncc(F)c(-c7cccc(-n8ccccc8=O)c7)n6)CC5)CC4)CC3(F)F)c(F)c2)C(=O)N1` (stereo partly drawn) [Compound 692, trans-N-(trans-4-(4-(4-((2,6-dioxopiperidin-3-yl)amino)-2-fluorophenyl)-3,3-difluoropiperidin-1-yl)cyclohexyl)-4-((5-fluoro-4-(3-(2-oxopyridin-1 (2H)-yl)phenyl)pyrimidin-2-yl)amino)cyclohexane-1-carboxamide]: the DC50 was less than 500 nM.

As for `O=C1CCC(Nc2ccc(C3CCN(C[C@H]4CC[C@H](C(=O)N5CCC(Nc6ncc(F)c(-c7cccc(-n8ccccc8=O)c7)n6)CC5)CC4)CC3)c(F)c2)C(=O)N1` (stereo partly drawn) [Compound 693, 3-((3-fluoro-4-(1-(((trans)-4-(4-((5-fluoro-4-(3-(2-oxopyridin-1 (2H)-yl)phenyl)pyrimidin-2-yl)amino)piperidine-1-carbonyl)cyclohexyl)methyl)piperidin-4-yl)phenyl)amino)piperidine-2,6-dione], the DC50 is less than 500 nM.

For `O=C1CCC(Nc2ccc(C3CCN(C4CCC(C(=O)N[C@H]5CC[C@H](Nc6ncc(F)c(-c7cccc(-n8ccccc8=O)c7)n6)CC5)CC4F)CC3)c(F)c2)C(=O)N1` (stereo partly drawn) [Compound 694, (1R,3S,4R)-4-(4-(4-((2,6-dioxopiperidin-3-yl)amino)-2-fluorophenyl)piperidin-1-yl)-3-fluoro-N-((trans)-4-((5-fluoro-4-(3-(2-oxopyridin-1 (2H)-yl)phenyl)pyrimidin-2-yl)amino)cyclohexyl)cyclohexane-1-carboxamide], the DC50 was less than 500 nM.

As for `O=C1CCC(Nc2ccc(C3CCN(C4CCN(C(=O)O[C@H]5CC[C@H](Nc6ncc(F)c(-c7cccc(-n8ccccc8=O)c7)n6)CC5)CC4F)CC3)c(F)c2)C(=O)N1` (stereo partly drawn) [Compound 695, trans-4-((5-fluoro-4-(3-(2-oxopyridin-1 (2H)-yl)phenyl)pyrimidin-2-yl)amino)cyclohexyl 4-(4-((2,6-dioxopiperidin-3-yl)amino)-2-fluorophenyl)-3′-fluoro-[1,4′-bipiperidine]-1′-carboxylate], the DC50 is less than 500 nM.
